Read-outs that look alike come from different tables or passages of the source.
How the values were obtained:
RAW264.7 macrophages = test: Cell viability of RAW264.7 macrophages (WST-1 reagent); assay type: cell-based, mouse; settings: read-out: RAW264.7 (20 ng/ml IFNγ) WST-1 IC50
Method: (§1) FIGS. 1-4, 6 and 8. Inhibition of NO Production. RAW264.7 macrophages were pre-treated with DMSO or drugs at various concentrations (nM) for 2 hours, then treated with 20 ng/ml IFNγ for 24 hours. NO concentration in media was determined using a Griess reagent system; cell viability was determined using WST-1 reagent.
(§2) Nitric Oxide production and cell viability. RAW264.7 macrophages were pre-treated with DMSO or drugs for 2 hours, then treated with recombinant mouse IFNγ (Sigma) for 24 hours. NO concentration in media was determined using the Griess reagent system (Promega). Cell viability was determined using WST-1 reagent (Roche).

[1] = test system: NO production in RAW264.7 macrophages; test: Inhibition of NO production in IFNγ-treated RAW264.7 macrophages (Griess reagent); assay type: cell-based, mouse; settings: then 20 ng/ml IFNγ for 24 hours
Method: as §1, §2

[2] = Mus musculus, RAW264.7, 24 h, cell viability, RAW264.7, 20 ng/ml IFNγ 24 hours, WST-1 reagent
[3] = Mus musculus, RAW264.7, RAW264.7 macrophages pre-treated 2 hours
[4] = cell viability, RAW264.7, 20 ng/ml IFNγ 24 hours, WST-1 reagent
[5] = RAW264.7 macrophages pre-treated 2 hours

Row | IC50 [1, 3] | IC50 [1, 5] | SMILES | IC50 (RAW264.7 macrophages; [2]) | IC50 (RAW264.7 macrophages; Mus musculus, RAW264.7, 24 h) | IC50 (RAW264.7 macrophages; [4])
1 | ~80 nM | – | CC1(C)CC[C@]2(COC(=O)c3ccccc3)CC[C@]3(C)[C@H](C(=O)C[C@@H]4[C@@]5(C)C=C(C#N)C(=O)C(C)(C)[C@@H]5CC[C@]43C)[C@@H]2C1 [Compound 63298, ((4aS,6aR,6bR,8aR,12aR,12bR,14aR,14bS)-11-cyano-2,2,6a,6b,9,9,12a-heptamethyl-10,14-dioxo-1,2,3,4,4a,5,6,6a,6b,7,8,8a,9,10,12a,12b,13,14,14a,14b-icosahydropicen-4a-yl)methyl benzoate] | ~200 nM | – | –
2 | ~15 nM | – | CC1(C)CC[C@]2([C@H]3COCO3)CC[C@]3(C)[C@H](C(=O)C[C@@H]4[C@@]5(C)C=C(C#N)C(=O)C(C)(C)[C@@H]5CC[C@]43C)[C@@H]2C1 [Compound 63285, (4aR,6aR,6bR,8aS,12aS,12bR,14aR,14bR)-8a-((S)-1,3-dioxolan-4-yl)-4,4,6a,6b,11,11,14b-heptamethyl-3,13-dioxo-3,4,4a,5,6,6a,6b,7,8,8a,9,10,11,12,12a,12b, 13,14,14a,14b-icosahydropicene-2-carbonitrile] | > 200 nM | – | –
3 | – | ~20 nM | CC1(C)CC[C@]2(C(O)CBr)CC[C@]3(C)[C@H](C(=O)C[C@@H]4[C@@]5(C)C=C(C#N)C(=O)C(C)(C)[C@@H]5CC[C@]43C)[C@@H]2C1 (single isomer, unassigned) [Compound 63283] | – | – | ~200 nM
4 | ~50 nM | – | CC1(C)CC[C@]2(CN3C(=O)c4ccccc4C3=O)CC[C@]3(C)[C@H](C(=O)C[C@@H]4[C@@]5(C)C=C(C#N)C(=O)C(C)(C)[C@@H]5CC[C@]43C)[C@@H]2C1 [Compound 63276, (4aR,6aR,6bR,8aS,12aS,12bR,14aR,14bR)-8a-((1,3-dioxoisoindolin-2-yl)methyl)-4,4,6a,6b,11,11,14b-heptamethyl-3,13-dioxo-3,4,4a,5,6,6a,6b,7,8,8a,9,10,11,12,12a,12b,13,14,14a,14b-icosahydropicene-2-carbonitrile] | ~150 nM | – | –
5 | – | ~13 nM | CC1(C)CC[C@]2(C3CO3)CC[C@]3(C)[C@H](C(=O)C[C@@H]4[C@@]5(C)C=C(C#N)C(=O)C(C)(C)[C@@H]5CC[C@]43C)[C@@H]2C1 (single isomer, unassigned) [Compound 63286] | – | – | > 200 nM
6 | – | ~25 nM | CC1(C)CC[C@]2(C[S+]([O-])c3ccccc3)CC[C@]3(C)[C@H](C(=O)C[C@@H]4[C@@]5(C)C=C(C#N)C(=O)C(C)(C)[C@@H]5CC[C@]43C)[C@@H]2C1 (stereo partly drawn) [Compound 63288, (4aR,6aR,6bR,8aS,12aS,12bR,14aR,14bR)-4,4,6a,6b,11,11,14b-heptamethyl-3,13-dioxo-8a-(phenylsulfinylmethyl)-3,4,4a,5,6,6a,6b,7,8,8a,9,10,11,12,12a,12b,13,14,14a,14b-icosahydropicene-2-carbonitrile] | – | – | ~200 nM
7 | ~18 nM | – | C#C[C@]12CCC(C)(C)C[C@H]1[C@H]1C(=O)C[C@@H]3[C@@]4(C)C=C(C#N)C(=O)C(C)(C)[C@@H]4CC[C@@]3(C)[C@]1(C)CC2 [Compound 63303, (4aR,6aR,6bR,8aS,12aS,12bR,14aR,14bR)-8a-ethynyl-4,4,6a,6b,11,11,14b-heptamethyl-3,13-dioxo-3,4,4a,5,6,6a,6b,7,8,8a,9,10,11,12,12a,12b,13,14,14a,14b-icosahydropicene-2-carbonitrile] | ~150 nM | – | –
8 | ~50 nM | – | CC1(C)CC[C@]2(CC(=O)O)CC[C@]3(C)[C@H](C(=O)C[C@@H]4[C@@]5(C)C=C(C#N)C(=O)C(C)(C)[C@@H]5CC[C@]43C)[C@@H]2C1 [Compound 63332, 2-((4aR,6aR,6bR,8aR,12aR,12bR,14aR,14bS)-11-cyano-2,2,6a,6b,9,9,12a-heptamethyl-10,14-dioxo-1,2,3,4,4a,5,6,6a,6b,7,8,8a,9,10,12a,12b,13,14,14a,14b-icosahydropicen-4a-yl)acetic acid] | – | – | –
9 | ~25 nM | – | CC1(C)CC[C@]2([C@@H](O)CCl)CC[C@]3(C)[C@H](C(=O)C[C@@H]4[C@@]5(C)C=C(C#N)C(=O)C(C)(C)[C@@H]5CC[C@]43C)[C@@H]2C1 (single isomer, unassigned) [Compound 63282] | > 200 nM | – | –
10 | ~9 nM | – | CC1(C)CC[C@]2(COC(=O)C(F)(F)F)CC[C@]3(C)[C@H](C(=O)C[C@@H]4[C@@]5(C)C=C(C#N)C(=O)C(C)(C)[C@@H]5CC[C@]43C)[C@@H]2C1 [Compound 63294, ((4aS,6aR,6bR,8aR,12aR,12bR,14aR,14bS)-11-cyano-2,2,6a,6b,9,9,12a-heptamethyl-10,14-dioxo-1,2,3,4,4a,5,6,6a,6b,7,8,8a,9,10,12a,12b,13,14,14a,14b-icosahydropicen-4a-yl)methyl 2,2,2-trifluoroacetate] | > 200 nM | – | –

Second part, the compound before the results:

Row | SMILES | IC50 [1, 3] | IC50 [1, 5] | IC50 (RAW264.7 macrophages; [2]) | IC50 (RAW264.7 macrophages; Mus musculus, RAW264.7, 24 h) | IC50 (RAW264.7 macrophages; [4])
11 | Cn1nnc(CNC[C@]23CCC(C)(C)C[C@H]2[C@H]2C(=O)C[C@@H]4[C@@]5(C)C=C(C#N)C(=O)C(C)(C)[C@@H]5CC[C@@]4(C)[C@]2(C)CC3)n1 [Compound 63233, (4aR,6aR,6bR,8aS,12aS,12bR,14aR,14bR)-4,4,6a,6b,11,11,14b-heptamethyl-8a-(((2-methyl-2H-tetrazol-5-yl)methylamino)methyl)-3,13-dioxo-3,4,4a,5,6,6a,6b,7,8,8a,9,10,11,12,12a,12b,13,14,14a,14b-icosahydropicene-2-carbonitrile] | – | – | – | > 200 nM | –
12 | CC1(C)CC[C@]2(CSc3ccccc3)CC[C@]3(C)[C@H](C(=O)C[C@@H]4[C@@]5(C)C=C(C#N)C(=O)C(C)(C)[C@@H]5CC[C@]43C)[C@@H]2C1 [Compound 63235, (4aR,6aR,6bR,8aS,12aS,12bR,14aR,14bR)-4,4,6a,6b,11,11,14b-heptamethyl-3,13-dioxo-8a-(phenylthiomethyl)-3,4,4a,5,6,6a,6b,7,8,8a,9,10,11,12,12a,12b,13,14,14a,14b-icosahydropicene-2-carbonitrile] | ~80 nM | – | ~150 nM | – | –
13 | CC(=O)OC[C@]12CCC(C)(C)C(C#N)[C@H]1[C@H]1C(=O)CC3[C@@]4(C)C=CC(=O)C(C)(C)[C@@H]4CC[C@@]3(C)[C@]1(C)CC2 (stereo partly drawn) [Compound 402-65, ((4aS,6aR,6bR,8aR,12aR,14aR,14bS)-1-cyano-2,2,6a,6b,9,9,12a-heptamethyl-10,14-dioxo-1,2,3,4,4a,5,6,6a,6b,7,8,8a,9,10,12a,12b,13,14,14a,14b-icosahydropicen-4a-yl)methyl acetate] | ~12.5 nM | – | > 200 nM | – | –
14 | CC1(C)CC[C@]2(C[S+]([O-])c3ccccc3)CC[C@]3(C)[C@H](C(=O)C[C@@H]4[C@@]5(C)C=C(C#N)C(=O)C(C)(C)[C@@H]5CC[C@]43C)[C@@H]2C1 (stereo partly drawn) [Compound 63255, (4aR,6aR,6bR,8aS,12aS,12bR,14aR,14bR)-4,4,6a,6b,11,11,14b-heptamethyl-3,13-dioxo-8a-(phenylsulfinylmethyl)-3,4,4a,5,6,6a,6b,7,8,8a,9,10,11,12,12a,12b,13,14,14a,14b-icosahydropicene-2-carbonitrile] | ~50 nM | – | > 200 nM | – | –
15 | CC1(C)CC[C@]2([C@@H]3CO3)CC[C@]3(C)[C@H](C(=O)C[C@@H]4[C@@]5(C)C=C(C#N)C(=O)C(C)(C)[C@@H]5CC[C@]43C)[C@@H]2C1 [Compound 63275, (4aR,6aR,6bR,8aS,12aS,12bR,14aR,14bR)-4,4,6a,6b,11,11,14b-heptamethyl-8a-((R)-oxiran-2-yl)-3,13-dioxo-3,4,4a,5,6,6a,6b,7,8,8a,9,10,11,12,12a,12b,13,14,14a,14b-icosahydropicene-2-carbonitrile] | ~15 nM | – | > 200 nM | – | –
16 | CC1(C)CC[C@]2(COP(=O)(O)O)CC[C@]3(C)[C@H](C(=O)C[C@@H]4[C@@]5(C)C=C(C#N)C(=O)C(C)(C)[C@@H]5CC[C@]43C)[C@@H]2C1 [Compound 63269, ((4aS,6aR,6bR,8aR,12aR,12bR,14aR,14bS)-11-cyano-2,2,6a,6b,9,9,12a-heptamethyl-10,14-dioxo-1,2,3,4,4a,5,6,6a,6b,7,8,8a,9,10,12a,12b,13,14,14a,14b-icosahydropicen-4a-yl)methyl dihydrogen phosphate] | > 200 nM | – | > 200 nM | – | –
17 | CC1(C)CC[C@]2(CNCC(F)(F)F)CC[C@]3(C)[C@H](C(=O)C[C@@H]4[C@@]5(C)C=C(C#N)C(=O)C(C)(C)[C@@H]5CC[C@]43C)[C@@H]2C1 [Compound 63273, (4aR,6aR,6bR,8aS,12aS,12bR,14aR,14bR)-4,4,6a,6b,11,11,14b-heptamethyl-3,13-dioxo-8a-((2,2,2-trifluoroethylamino)methyl)-3,4,4a,5,6,6a,6b,7,8,8a,9,10,11,12,12a,12b,13,14,14a,14b-icosahydropicene-2-carbonitrile] | ~80 nM | – | ~200 nM | – | –
18 | CCOP(=O)(OCC)OC[C@]12CCC(C)(C)C[C@H]1[C@H]1C(=O)C[C@@H]3[C@@]4(C)C=C(C#N)C(=O)C(C)(C)[C@@H]4CC[C@@]3(C)[C@]1(C)CC2 [Compound 63239, ((4aS,6aR,6bR,8aR,12aR,12bR,14aR,14bS)-11-cyano-2,2,6a,6b,9,9,12a-heptamethyl-10,14-dioxo-1,2,3,4,4a,5,6,6a,6b,7,8,8a,9,10,12a,12b,13,14,14a,14b-icosahydropicen-4a-yl)methyl diethyl phosphate] | – | – | – | > 200 nM | –

Reference: patent US8394967B2, “Antioxidant inflammation modulators: C-17 homologated oleanolic acid derivatives” (Reata Pharmaceuticals, Inc., priority 2008, dated 2013)
